In PMC12830821 (Communications Biology, 2025):

Assays:
Type in all cases: cell-based
chicken TRPM8 (cTRPM8) = chicken TRPM8 (cTRPM8) (Gallus gallus, UniProt A0AA95FIJ1)
human TRPM8 (hTRPM8) [1] = target: T1, human TRPM8 (hTRPM8) (Homo sapiens, UniProt Q7Z2W7)
rat TRPM8 (rTRPM8) [2] = target: T2, rat TRPM8 (rTRPM8) (Rattus norvegicus, UniProt Q8R455)
human TRPM8 (hTRPM8) [3] = target: T1, human TRPM8 (hTRPM8); assay: calcium imaging
rat TRPM8 (rTRPM8) [4] = target: T2, rat TRPM8 (rTRPM8); assay: calcium imaging

T2 sequence (Q8R455 whole entry): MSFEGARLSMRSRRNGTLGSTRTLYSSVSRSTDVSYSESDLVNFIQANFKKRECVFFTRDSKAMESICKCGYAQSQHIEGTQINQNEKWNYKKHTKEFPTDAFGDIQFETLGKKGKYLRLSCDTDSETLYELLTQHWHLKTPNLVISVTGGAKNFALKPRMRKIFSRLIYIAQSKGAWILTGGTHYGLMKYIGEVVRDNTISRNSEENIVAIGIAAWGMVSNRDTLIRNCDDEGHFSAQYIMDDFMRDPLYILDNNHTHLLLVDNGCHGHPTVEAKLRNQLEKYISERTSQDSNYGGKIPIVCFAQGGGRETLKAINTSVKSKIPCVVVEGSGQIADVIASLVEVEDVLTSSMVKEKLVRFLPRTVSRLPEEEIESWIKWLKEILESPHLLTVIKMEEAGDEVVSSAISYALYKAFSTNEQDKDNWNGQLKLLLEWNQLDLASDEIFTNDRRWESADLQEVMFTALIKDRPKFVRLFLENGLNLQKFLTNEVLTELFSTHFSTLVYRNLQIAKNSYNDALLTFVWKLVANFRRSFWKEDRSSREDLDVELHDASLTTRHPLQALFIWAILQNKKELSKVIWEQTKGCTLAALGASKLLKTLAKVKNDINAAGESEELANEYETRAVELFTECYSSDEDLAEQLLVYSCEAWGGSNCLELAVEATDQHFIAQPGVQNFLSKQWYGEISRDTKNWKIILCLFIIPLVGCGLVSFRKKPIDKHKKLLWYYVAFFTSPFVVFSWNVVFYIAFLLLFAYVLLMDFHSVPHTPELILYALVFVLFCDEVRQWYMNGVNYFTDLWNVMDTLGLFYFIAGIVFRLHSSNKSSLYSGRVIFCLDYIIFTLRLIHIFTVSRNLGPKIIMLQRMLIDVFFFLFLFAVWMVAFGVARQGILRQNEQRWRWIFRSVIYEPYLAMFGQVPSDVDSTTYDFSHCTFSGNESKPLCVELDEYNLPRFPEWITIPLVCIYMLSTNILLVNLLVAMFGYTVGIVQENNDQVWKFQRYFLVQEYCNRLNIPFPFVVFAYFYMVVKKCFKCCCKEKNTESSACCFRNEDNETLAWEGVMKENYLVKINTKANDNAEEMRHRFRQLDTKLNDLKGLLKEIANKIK
T1 sequence (Q7Z2W7 whole entry): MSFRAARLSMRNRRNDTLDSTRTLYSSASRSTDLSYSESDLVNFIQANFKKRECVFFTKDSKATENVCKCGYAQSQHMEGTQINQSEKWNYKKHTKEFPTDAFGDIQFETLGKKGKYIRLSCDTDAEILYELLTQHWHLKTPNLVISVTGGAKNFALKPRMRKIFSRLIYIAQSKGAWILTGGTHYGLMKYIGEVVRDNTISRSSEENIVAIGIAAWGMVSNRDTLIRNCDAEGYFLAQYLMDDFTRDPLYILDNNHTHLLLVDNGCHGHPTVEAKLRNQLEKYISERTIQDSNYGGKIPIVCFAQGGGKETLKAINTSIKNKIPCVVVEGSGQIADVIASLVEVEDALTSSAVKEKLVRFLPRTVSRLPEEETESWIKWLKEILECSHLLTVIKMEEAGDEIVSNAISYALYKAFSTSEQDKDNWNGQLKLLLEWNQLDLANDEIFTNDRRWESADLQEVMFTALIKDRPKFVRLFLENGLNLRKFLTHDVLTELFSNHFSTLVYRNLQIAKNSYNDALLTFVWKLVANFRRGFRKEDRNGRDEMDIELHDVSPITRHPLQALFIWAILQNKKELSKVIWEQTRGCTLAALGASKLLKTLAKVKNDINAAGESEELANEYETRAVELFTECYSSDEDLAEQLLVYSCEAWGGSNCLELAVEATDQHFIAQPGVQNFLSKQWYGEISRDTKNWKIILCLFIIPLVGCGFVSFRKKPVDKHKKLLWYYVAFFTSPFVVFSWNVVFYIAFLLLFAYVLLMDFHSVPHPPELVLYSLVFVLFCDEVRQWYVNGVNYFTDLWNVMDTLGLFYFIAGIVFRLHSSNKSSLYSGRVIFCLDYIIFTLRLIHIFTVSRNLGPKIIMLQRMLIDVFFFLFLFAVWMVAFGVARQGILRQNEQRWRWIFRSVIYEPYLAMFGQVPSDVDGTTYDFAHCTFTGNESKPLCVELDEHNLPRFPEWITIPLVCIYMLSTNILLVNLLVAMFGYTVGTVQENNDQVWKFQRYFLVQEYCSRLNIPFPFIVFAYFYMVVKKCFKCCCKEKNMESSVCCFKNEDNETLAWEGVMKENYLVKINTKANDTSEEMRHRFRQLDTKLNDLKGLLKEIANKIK
Chain of chicken TRPM8 (cTRPM8) (A0AA95FIJ1 1-1111): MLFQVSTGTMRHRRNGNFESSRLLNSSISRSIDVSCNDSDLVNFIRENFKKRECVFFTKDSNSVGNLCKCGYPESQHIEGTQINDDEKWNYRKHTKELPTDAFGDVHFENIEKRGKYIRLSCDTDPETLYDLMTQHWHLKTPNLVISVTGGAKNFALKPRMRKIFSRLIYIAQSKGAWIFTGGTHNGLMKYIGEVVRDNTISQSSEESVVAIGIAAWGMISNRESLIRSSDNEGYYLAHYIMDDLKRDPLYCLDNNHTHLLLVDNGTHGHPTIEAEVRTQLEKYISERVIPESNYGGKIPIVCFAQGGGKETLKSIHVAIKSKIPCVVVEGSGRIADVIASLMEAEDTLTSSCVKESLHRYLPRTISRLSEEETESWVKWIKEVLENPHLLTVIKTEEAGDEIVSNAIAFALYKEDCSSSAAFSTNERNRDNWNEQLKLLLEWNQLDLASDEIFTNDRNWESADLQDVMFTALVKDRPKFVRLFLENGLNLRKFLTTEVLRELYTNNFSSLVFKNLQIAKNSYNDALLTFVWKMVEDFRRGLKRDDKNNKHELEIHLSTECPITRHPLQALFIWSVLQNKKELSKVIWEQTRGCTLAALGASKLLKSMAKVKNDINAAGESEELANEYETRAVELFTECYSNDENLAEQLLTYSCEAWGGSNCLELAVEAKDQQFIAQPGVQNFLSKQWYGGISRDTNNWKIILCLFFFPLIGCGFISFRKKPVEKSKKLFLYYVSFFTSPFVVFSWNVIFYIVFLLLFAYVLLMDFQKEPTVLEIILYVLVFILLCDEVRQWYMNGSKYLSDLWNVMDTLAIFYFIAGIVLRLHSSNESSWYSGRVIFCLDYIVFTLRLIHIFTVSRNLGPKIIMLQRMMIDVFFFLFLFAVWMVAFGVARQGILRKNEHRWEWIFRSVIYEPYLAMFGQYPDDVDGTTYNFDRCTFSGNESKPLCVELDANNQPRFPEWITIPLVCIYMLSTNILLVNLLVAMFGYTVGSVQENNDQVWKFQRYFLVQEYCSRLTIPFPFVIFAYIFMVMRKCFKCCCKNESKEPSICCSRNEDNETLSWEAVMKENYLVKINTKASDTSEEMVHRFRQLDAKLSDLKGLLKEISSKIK

| EC50 (chicken TRPM8 (cTRPM8)) [nM] | EC50 (human TRPM8 (hTRPM8) [1]) [nM] | SMILES | EC50 (rat TRPM8 (rTRPM8) [2]) | calcium imaging (10 μM) in transfected HEK293T cells (human TRPM8 (hTRPM8) [3]) | calcium imaging (10 μM) in transfected HEK293T cells (rat TRPM8 (rTRPM8) [4]) |
| --- | --- | --- | --- | --- | --- |
| 250 | 2430 | CCCCCCCP(=O)(C(C)C)C(C)C [C-1, 1-di(propan-2-yl)phosphorylheptane] | Rat TRPM8 showed intermediate EC50 values | – | – |
| – | – | O=C1NC(c2cccc([N+](=O)[O-])c2)=CCN1c1ccccc1O [icilin, 1-(2-hydroxyphenyl)-4-(V3-nitrophenyl)-l,2,3,6-tetrahydropyrimidine-2-one] | – | As expected, icilin activated only the mammalian orthologs | As expected, icilin activated only the mammalian orthologs |
